One assay concerns KARN cells (Jurkat 2C4). The assay is described as follows: cells. The class given is cell-based. The method, boiled down:
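Luminescence (Steady-Glo, 10 min, room temperature) measured next day in KARN Jurkat 2C4 cells given compounds at up to 40 μM final with 0.4% DMSO. Percent activation normalised to DMSO (0%) and 2 μM SAHA (100%), fitted by 4-parameter curve.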

Assay [1] addresses T1, Recombinant human HDAC3/SMRT heterodimer (Homo sapiens, UniProt O15379).
T1 construct: FLAG (C); made in house
Description: Human HDAC enzyme inhibitor Fluor-de-Lys assay, HDAC3/SMRT. The class given is biochemical.

Another assay concerns the target T2, Recombinant human HDAC2 (Homo sapiens, UniProt Q92769).
T2 construct: Full length human HDAC2-FLAG was expressed in baculovirus infected Sf9 cells; FLAG (C); made in house; host or cells: Sf9 (baculovirus)
Description: Human HDAC enzyme inhibitor Fluor-de-Lys assay, HDAC2. The class given is biochemical. The method, boiled down: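 Fluor-de-Lys format at room temperature (23° C.): compounds titrated 10-point, 1:3, preincubated with HDAC before substrate addition. Developer with excess HDAC inhibitor ends the reaction, and trypsin-liberated AMC fluorescence is the read-out.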

The target in the next assay is T3, Recombinant human HDAC1 (Homo sapiens, UniProt Q13547).
T3 construct: FLAG (C); made in house
T3 sequence (Q13547 whole entry): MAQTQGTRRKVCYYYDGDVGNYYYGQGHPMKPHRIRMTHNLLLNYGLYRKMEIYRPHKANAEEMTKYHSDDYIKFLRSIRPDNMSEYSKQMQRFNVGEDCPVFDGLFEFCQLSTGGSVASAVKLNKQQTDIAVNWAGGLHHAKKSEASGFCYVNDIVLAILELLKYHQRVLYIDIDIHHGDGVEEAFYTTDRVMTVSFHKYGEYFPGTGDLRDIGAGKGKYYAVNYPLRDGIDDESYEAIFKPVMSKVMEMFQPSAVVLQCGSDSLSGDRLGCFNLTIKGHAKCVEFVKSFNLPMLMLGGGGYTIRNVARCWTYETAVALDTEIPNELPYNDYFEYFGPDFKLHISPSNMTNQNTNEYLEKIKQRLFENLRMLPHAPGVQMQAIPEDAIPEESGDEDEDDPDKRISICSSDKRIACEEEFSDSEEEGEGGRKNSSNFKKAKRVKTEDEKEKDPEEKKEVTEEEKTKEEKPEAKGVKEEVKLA
The assay is described as follows: Human HDAC enzyme inhibitor Fluor-de-Lys assay, HDAC1. The format is biochemical. The method, boiled down: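 Fluor-de-Lys format at room temperature (23° C.): compounds titrated 10-point, 1:3, preincubated with HDAC before substrate addition; HDAC1 run at 0.3 nM enzyme with 20 μM BML-KI104. Developer with excess HDAC inhibitor ends the reaction, and trypsin-liberated AMC fluorescence is the read-out.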

The mark [2] stands for this setting: Homo sapiens, Jurkat, read-out: Karn EC50 (nM) 0.1% NHS, 0.1% normal human serum.
The mark [3] stands for this setting: Homo sapiens, Jurkat, read-out: Karn EC50 (nM) 5% NHS, 5% normal human serum.
The mark [4] stands for this setting: read-out: Karn EC50 (nM) 0.1% NHS, 0.1% normal human serum.
Where [5] appears, read: read-out: Karn EC50 (nM) 5% NHS, 5% normal human serum.

The record followed here is patent publication US12590099B2, “Inhibitors of histone deacetylase useful for the treatment or prevention of HIV infection” (Merck Sharp & Dohme LLC, priority 2018, dated 2026).

Like-named read-outs stand apart in the source and are kept apart here.

T1 sequence (O15379 whole entry): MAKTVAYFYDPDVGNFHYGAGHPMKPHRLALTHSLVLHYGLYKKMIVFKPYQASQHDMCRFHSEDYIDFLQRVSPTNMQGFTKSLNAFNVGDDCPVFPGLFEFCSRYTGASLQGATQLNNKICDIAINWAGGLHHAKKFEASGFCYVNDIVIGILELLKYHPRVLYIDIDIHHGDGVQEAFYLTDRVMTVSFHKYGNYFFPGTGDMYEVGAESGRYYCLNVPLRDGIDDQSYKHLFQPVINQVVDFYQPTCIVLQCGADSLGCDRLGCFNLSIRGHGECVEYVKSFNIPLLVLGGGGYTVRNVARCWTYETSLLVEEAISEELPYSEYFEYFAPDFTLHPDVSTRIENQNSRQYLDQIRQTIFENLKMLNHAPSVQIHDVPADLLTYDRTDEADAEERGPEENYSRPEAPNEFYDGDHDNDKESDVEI
T1 sequence (Q9Y618 1-899 partner limits assumed): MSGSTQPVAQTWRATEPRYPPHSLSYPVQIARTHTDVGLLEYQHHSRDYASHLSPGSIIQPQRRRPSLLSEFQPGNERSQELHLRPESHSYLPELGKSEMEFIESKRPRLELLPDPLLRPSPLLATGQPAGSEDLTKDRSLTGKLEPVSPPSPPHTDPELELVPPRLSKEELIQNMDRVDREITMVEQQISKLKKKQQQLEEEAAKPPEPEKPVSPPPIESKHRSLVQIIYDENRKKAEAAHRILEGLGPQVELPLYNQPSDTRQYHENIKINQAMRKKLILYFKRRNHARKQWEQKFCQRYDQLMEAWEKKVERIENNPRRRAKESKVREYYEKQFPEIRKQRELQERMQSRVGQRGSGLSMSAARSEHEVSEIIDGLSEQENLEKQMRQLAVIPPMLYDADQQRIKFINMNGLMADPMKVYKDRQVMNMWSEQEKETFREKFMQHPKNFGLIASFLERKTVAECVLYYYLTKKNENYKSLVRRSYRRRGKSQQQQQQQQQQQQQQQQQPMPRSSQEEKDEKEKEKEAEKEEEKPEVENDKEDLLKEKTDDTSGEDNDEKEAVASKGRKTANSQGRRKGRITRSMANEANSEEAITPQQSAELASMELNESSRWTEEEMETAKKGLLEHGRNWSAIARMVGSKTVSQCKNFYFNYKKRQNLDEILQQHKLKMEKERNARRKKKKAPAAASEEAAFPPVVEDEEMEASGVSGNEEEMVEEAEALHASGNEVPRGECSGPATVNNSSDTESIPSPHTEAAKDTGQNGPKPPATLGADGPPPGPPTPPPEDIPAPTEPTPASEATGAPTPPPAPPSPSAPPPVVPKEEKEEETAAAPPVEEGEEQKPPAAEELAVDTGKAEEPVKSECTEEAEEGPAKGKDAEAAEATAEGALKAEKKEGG
T2 sequence (Q92769 whole entry): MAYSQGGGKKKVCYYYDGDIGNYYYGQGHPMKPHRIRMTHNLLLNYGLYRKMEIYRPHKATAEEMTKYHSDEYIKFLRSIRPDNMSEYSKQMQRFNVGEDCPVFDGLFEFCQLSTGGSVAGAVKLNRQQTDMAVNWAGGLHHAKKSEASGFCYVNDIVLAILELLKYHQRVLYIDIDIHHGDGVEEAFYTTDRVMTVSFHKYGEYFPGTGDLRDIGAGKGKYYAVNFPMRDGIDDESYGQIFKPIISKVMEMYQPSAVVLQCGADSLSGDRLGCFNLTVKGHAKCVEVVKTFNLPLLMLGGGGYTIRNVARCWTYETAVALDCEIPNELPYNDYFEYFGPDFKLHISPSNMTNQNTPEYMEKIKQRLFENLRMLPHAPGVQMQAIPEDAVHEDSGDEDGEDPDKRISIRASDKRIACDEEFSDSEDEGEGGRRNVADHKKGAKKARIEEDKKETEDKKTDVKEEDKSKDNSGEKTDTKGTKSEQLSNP

For `COc1cc2nc(C)ccc2cc1-c1cnc([C@H](CCCCCC(=O)CC2CC2)NC(=O)[C@H]2CC23CCN(C)CC3)o1` [Compound 195, (1S)—N-{(1S)-8-cyclopropyl-1-[5-(7-methoxy-2-methylquinolin-6-yl)-1,3-oxazol-2-yl]-7-oxooctyl}-6-methyl-6-azaspiro[2.5]octane-1-carboxamide], the EC50 – broadly, the concentration giving half of the maximal effect – in the assay with KARN cells (Jurkat 2C4) (setting [2]) worked out at 163 nM; with KARN cells (Jurkat 2C4) (setting [3]) it was 216 nM. In addition, the figures for the half-maximal inhibitory concentration (IC50) (in assay [1]; on Recombinant human HDAC2; at Recombinant human HDAC1) were 1.71 nM, 9.7 nM and 0.86 nM, respectively.
On the same counts, the results for `CCC(=O)CCCCC[C@H](NC(=O)[C@H]1CC12CCN(C)CC2)c1ncc(-c2ccc3cnc(OC)cc3c2)[nH]1` [Compound 113] are 58 nM, 107 nM, 1.42 nM, 6.6 nM and 1.37 nM.
`CCC(=O)CCCCC[C@H](NC(=O)C1CC12CCN(C)C(C)(C)C2)c1ncc(-c2ccc3nc(C)ccc3c2)[nH]1` (single isomer, unassigned) [Compound 131]: the EC50 is 126 nM in the assay on KARN cells (Jurkat 2C4) (setting [4]) and 128 nM in the assay on KARN cells (Jurkat 2C4) (setting [5]). In addition, the IC50 (in general, the midpoint of a concentration-inhibition curve) in assay [1] worked out at 0.57 nM; on Recombinant human HDAC2, 2.5 nM; on Recombinant human HDAC1 it was 0.48 nM.
The like results for `CCC(=O)CCCCC[C@H](NC(=O)C1CC12CCN(C)C(C)(C)C2)c1ncc(-c2ccc3nc(C)ccc3c2)[nH]1` (single isomer, unassigned) [Compound 132] were, in that order, 169 nM, 281 nM, less than 1.5 nM, 6.5 nM and 2.33 nM.
For the compound `CCC(=O)CCCCC[C@H](NC(=O)[C@H]1CC12CCN(C)CC2)c1ncc(-c2ccc(C3CC3)nc2)[nH]1` [Compound 139], the EC50 in the assay on KARN cells (Jurkat 2C4) (setting [2]) was found to be 532 nM; with KARN cells (Jurkat 2C4) (setting [3]) it was 552 nM. In addition, the IC50 stood at 2.39 nM in assay [1], 26.1 nM on Recombinant human HDAC2 and 5.28 nM on Recombinant human HDAC1.
With `CCC(=O)CCCCC[C@H](NC(=O)[C@H]1CC12CCN(C)CC2)c1ncc(-c2ccc3c(c2)C2CCC3C2)[nH]1` (some centres unmarked) [Compound 74], the results for the EC50 in the assay on KARN cells (Jurkat 2C4) (setting [2]) and in the assay with KARN cells (Jurkat 2C4) (setting [3]) were 351 nM and 376 nM, respectively. The IC50 worked out at 3.74 nM in assay [1], 36.2 nM on Recombinant human HDAC2 and 8.21 nM on Recombinant human HDAC1.
The like results for `CCC(=O)CCCCC[C@H](NC(=O)[C@H]1CC12CCN(CC)CC2)c1ncc(-c2ccc3c(=O)n(C4CC4)ccc3c2)[nH]1` [Compound 150] were, in that order, 114 nM, 135 nM, 0.25 nM, 1.4 nM and 0.19 nM.
For the compound `CCC(=O)CCCCC[C@H](NC(=O)[C@H]1CC12CCN(CC)CC2)c1nc(-c2cc3ccc(C)nc3cc2OC)cn1COC(=O)C(C)(C)C` [Compound 215, {2-[(1S)-1-({[(1S)-6-ethyl-6-azaspiro[2.5]oct-1-yl]carbonyl}amino)-7-oxononyl]-4-(7-methoxy-2-methylquinolin-6-yl)-1H-imidazol-1-yl}methyl 2,2-dimethylpropanoate], the EC50 in the assay with KARN cells (Jurkat 2C4) (setting [2]) and in the assay on KARN cells (Jurkat 2C4) (setting [3]) was 93 nM each time. Moreover, the IC50 in assay [1] is 1.15 nM; on Recombinant human HDAC2 it was 4 nM; at Recombinant human HDAC1, 0.89 nM.
For `CCC(=O)CCCCC[C@H](NC(=O)[C@H]1CC12CCN(C)CC2)c1ncc(-c2ccc3nc(C4CC4)ccc3c2)o1` [Compound 121], the values for the half-maximal effective concentration (EC50) with KARN cells (Jurkat 2C4) (setting [2]) and in the assay with KARN cells (Jurkat 2C4) (setting [3]) were 232 nM and 242 nM, respectively. Further, the figures for the IC50 (in assay [1]; on Recombinant human HDAC2; at Recombinant human HDAC1) were 1.16 nM, 4.4 nM and 1.39 nM, respectively.
With `CCC(=O)CCCCC[C@H](NC(=O)[C@H]1CC12CCN(C)CC2)c1ncc(-c2ccc3nc(C4CC4)oc3c2)[nH]1` [Compound 160], the EC50 in the assay on KARN cells (Jurkat 2C4) (setting [2]) was 200 nM; with KARN cells (Jurkat 2C4) (setting [3]), 234 nM. The figures for the IC50 (in assay [1]; on Recombinant human HDAC2; at Recombinant human HDAC1) were 2.75 nM, 12.1 nM and 1.89 nM, respectively.
As to `CCC(=O)CCCCC[C@H](NC(=O)[C@H]1CC12CCN(CC)CC2)c1ncc(-c2cc3nn(C)cc3cc2OC)o1` [Compound 189], the EC50 in the assay on KARN cells (Jurkat 2C4) (setting [2]) was 282 nM; with KARN cells (Jurkat 2C4) (setting [3]) it was 300 nM. Also, the values for the IC50 (in assay [1]; on Recombinant human HDAC2; at Recombinant human HDAC1) were 2.34 nM, 30 nM and 7.33 nM, respectively.
On the same counts, the results for `CCC(=O)CCCCC[C@H](NC(=O)C1=NOC2(CCN(CC)CC2)C1)c1ncc(-c2cc3ccc(C)nc3cc2OC)[nH]1` [Compound 207] are 55 nM, 58 nM, 0.36 nM, 2.1 nM and 0.24 nM.
On the same counts, the results for `CCC(=O)CCCCC[C@H](NC(=O)C1=NOC2(CCN(C)CC2)C1)c1ncc(-c2cc3ccc(C)nc3cc2F)o1` [Compound 221] are 344 nM, 581 nM, 13.6 nM, 54.5 nM and 8.62 nM.
